What was measured:
Type in all cases: in vivo
[1] = system: wild buckwheat (Polygonum convolvulus, POLCO); test: Field trial, percent visual weed control of POLCO; details: 39-51 days after application
Protocol: (§1) These trials were conducted under field conditions in France, Poland and Syria. Trial sites were located in commercially grown crops wheat, barley and corn. The crops were grown using normal cultural practices for fertilization, seeding, and maintenance to ensure good growth of the crop and the weeds. The trials were conducted using typical small plot herbicide research methodology. Trial plots were between 1 to 2.5 meters (m) wide by 6 to 42 m long. All treatments were applied using a randomized complete block trial design with 2 to 4 replications per treatment. The trial sites had naturally occurring populations of weeds. The weed spectrum included, but was not limited to, wild oat (Avena fatua, AVEFA); Shepherd's purse (Capsella bursa-pastoris, CAPBP); common lambsquarter (Chenopodium album, CHEAL); barnyardgrass (Echinochloa crus-galli, ECHCG); ryegrass (Lolium spp., LOLSS); short-spiked canarygrass (Phalaris brachystachys, PHABR); awned canarygrass (Phalaris paradoxa, PHAPA); narrow-leaved plantain (Plantago lanceolata, PLALA); annual […] (Poa annua, POAAN); and wild buckwheat (Polygonum convolvulus, POLCO).
(§2) Treatments consisted of tank mixes of penoxsulam and pyroxsulam or pyroxsulam+cloquintocet (mexyl) applied in water. Where used, Actirob B adjuvant was applied at use rate of 0.2 to 1 liter per hectare (L/ha) with pyroxsulam containing treatments and in tankmixes. […]

[2] = system: annual blackgrass (Poa annua, POANN); test: Field trial, percent visual weed control of POANN; details: 14 to 61 days after application
Protocol: as §1, §2

[3] = system: common lambsquarter (Chenopodium album, CHEAL); test: Field trial, percent visual weed control of CHEAL; details: 39-51 days after application
Protocol: as §1, §2

[4] = system: Shepherd's purse (Capsella bursa-pastoris, CAPBP); test: Field trial, percent visual weed control of CAPBP; details: 39-51 days after application
Protocol: as §1, §2

[5] = system: short-spiked canarygrass (Phalaris brachystachys, PHABR); test: Field trial, percent visual weed control of PHABR; details: 28 to 56 days after application
Protocol: as §1, §2

[6] = system: awned canarygrass (Phalaris paradoxa, PHAPA); test: Field trial, percent visual weed control of PHAPA; details: 28 to 56 days after application
Protocol: as §1, §2

[7] = system: wild oat (Avena fatua, AVEFA); test: Field trial, percent visual weed control of AVEFA; details: 28 to 56 days after application
Protocol: as §1, §2

[8] = system: ryegrass (Lolium spp., LOLSS); test: Field trial, percent visual weed control of LOLSS; details: 14 to 61 days after application
Protocol: as §1, §2

[9] = system: narrow-leaved plantain (Plantago lanceolata, PLALA); test: Field trial, percent visual weed control of PLALA; details: 14 to 61 days after application
Protocol: as §1, §2

[10] = system: barnyardgrass (Echinochloa crus-galli, ECHCG); test: Field trial, percent visual weed control of ECHCG; details: 39-51 days after application
Protocol: as §1, §2

COc1cnc(OC)n2nc(NS(=O)(=O)c3c(OCC(F)F)cccc3C(F)(F)F)nc12 [Penoxsulam, 2-(2,2-difluoroethoxy)-N-(5,8-dimethoxy-[1,2,4]triazolol1,5-clpyrimidin-2-yl)-6-(trifluoromethyl)benzenesulfonamide]
Control of POLCO, Obs (Observed Response) ([1]; penoxsulam 5 g ai/ha alone): 50%
Control of POANN, Obs (Observed Response) ([2]; penoxsulam 20 g ai/ha alone): 17%
Control of CHEAL, Obs (Observed Response) ([3]; penoxsulam 5 g ai/ha alone): 10%
Control of CAPBP, Obs (Observed Response) ([4]; penoxsulam 5 g ai/ha alone): 20%
Control of PHABR, Obs (Observed Response) ([5]; penoxsulam 20 g ai/ha alone): 0%
Control of PHAPA, Obs (Observed Response) ([6]; penoxsulam 20 g ai/ha alone): 0%
Control of AVEFA, Obs (Observed Response) ([7]; penoxsulam 20 g ai/ha alone): 0%
Control of LOLSS, Obs (Observed Response) ([8]; penoxsulam 20 g ai/ha alone): 20%
Control of PLALA, Obs (Observed Response) ([9]; penoxsulam 20 g ai/ha alone): 13%
Control of ECHCG, Obs (Observed Response) ([10]; penoxsulam 5 g ai/ha alone): 0%

COc1cc(OC)n2nc(NS(=O)(=O)c3c(C(F)(F)F)ccnc3OC)nc2n1 [Pyroxsulam, N-(5,7-dimethoxy[1,2,4]triazolol1,5-alpyrimidin-2-yl)-2-methoxy-4-(trifluoromethyl)-3-pyridinesulfonamide]
Control of POLCO, Obs (Observed Response) ([1]; pyroxsulam 4 g ai/ha alone): 35%
Control of POANN, Obs (Observed Response) ([2]; pyroxsulam 20 g ai/ha alone): 0%
Control of CHEAL, Obs (Observed Response) ([3]; pyroxsulam 4 g ai/ha alone): 65%
Control of CAPBP, Obs (Observed Response) ([4]; pyroxsulam 4 g ai/ha alone): 70%
Control of PHABR, Obs (Observed Response) ([5]; pyroxsulam 18 g ai/ha alone): 38%
Control of PHAPA, Obs (Observed Response) ([6]; pyroxsulam 18 g ai/ha alone): 80%
Control of AVEFA, Obs (Observed Response) ([7]; pyroxsulam 18 g ai/ha alone): 65%
Control of LOLSS, Obs (Observed Response) ([8]; pyroxsulam 20 g ai/ha alone): 0%
Control of PLALA, Obs (Observed Response) ([9]; pyroxsulam 20 g ai/ha alone): 7%
Control of ECHCG, Obs (Observed Response) ([10]; pyroxsulam 4 g ai/ha alone): 65%
